A short description of series [1]: In vitro cytotoxic assay, HCT-116. It is filed as cell-based. The note with it: human, HCT-116 cells (colon cancer cell line). How it is done:
(§1) Skin normal fibroblastic cells were purchased from Lonza (Basel, Switzerland). […] All culture media were supplemented by 10% of FBS, 1% of penicillin–streptomycin and 2 mM glutamine.
(§2) Chemicals were solubilized in DMSO at a concentration of 10 mM (stock solution) and diluted in culture medium to the desired final concentrations. […] Cells were plated in 96-well plates (4000 cells/well). Twenty-four hours after seeding, the cells were exposed to chemicals. […] Image acquisition and analysis were performed using a Cellomics ArrayScan VTI/HCS Reader (ThermoScientific, Les Ulis, France). The survival percentages were calculated as the percentage of cell number after compound treatment over cell number after DMSO treatment. The relative IC50 values were calculated using the curve fitting XLfit 5.5.0.5 (idbs) integrated in Microsoft Excel as an add-on.
(§3) 4.3.1. Cell culture. Skin normal fibroblastic cells are purchased from Lonza (Basel, Switzerland). Huh7- […]
(§4) from ATCC (American Type Culture Collection). […]
(§5) supplemented by 10% of FBS, 1% of penicillin-streptomycin and 2 mM glutamine.
(§6) 4.3.2. Cytotoxic assay. Chemicals were solubilized in DMSO at a concentration of 10 mM (stock solution) and diluted in culture medium to the desired final concentrations. The dose effect cytotoxic assays (IC50 determination) were performed by increasing the concentrations of each chemical (final well […]
(§7) Cells were plated in 96-well plates
(§8) (4000 cells/well). Twenty-four hours after seeding, cells were exposed to chemicals. After 48h of treatment, cells were washed in PBS and fixed in cooled 90% ethanol/5% acetic acid for 20 min and the […]
(§9) Image acquisition and analysis were performed using a Cellomics ArrayScan VTI/HCS Reader (ThermoScientific). The survival percentages were calculated as the percentage of cell number after compound treatment over cell number after DMSO treatment. The relative IC50 were calculated using the curve fitting XLfit 5.5.0.5 (idbs) integrated in Microsoft Excel as an add-on. The 4 Parameter Logistic Model or Sigmoidal Dose-Response Model describing the sigmoid-shaped response pattern was used (fit = (A+[(B-A)/(1+[(C/x)^D])]) where fit is the response and X is the tested concentration of the compound. The lower asymptote is A (also referred to as the bottom of the curve or lower plateau or the min) and the upper asymptote is B (also referred to as the top of the curve or upper plateau or the max). The slope of the linear part of the curve is described by the factor D. The parameter C is the concentration corresponding to the response midway between A and B. C is called “relative IC50” because it refers to the maximum response obtained by a […]
(§10) The results are represented as the mean ± standard error (SE) calculated from at least three independent experiments.

Series [2] is described as follows: In vitro cytotoxic assay, Huh7-D12. The format is cell-based. The settings on record: human, Huh7-D12 cells (liver cancer cell line). How it is done:
as §1, §2, §3, §4, §5, §6, §7, §8, §9, §10

A further series has as its target T1, Pim-1 (Homo sapiens, UniProt P11309).
T1 construct: host or cells: bacteria
The series can be described thus: ADP-Glo kinase inhibition assay, Pim-1. The format is biochemical. The note with it: percentage of maximum activity of the DMSO control, mean n = 2, 10 µM ATP, read-out: Residual activity Pim-1; for remaining activity at 1 µM: 1 μM compound; for remaining activity at 10 µM: 10 μM compound. How it is done:
Kinase enzymatic activities were assayed in 384-well plates using the ADP-Glo^TM assay kit (Promega, Madison, WI, USA) according to the recommendations of the manufacturer. This luminescent ADP detection assay was described by Zegzouti and co-workers and provides a homogeneous and high-throughput screening method to measure kinase activity by quantifying the amount of ADP produced during a kinase reaction. Briefly, the reactions were carried out in a final volume of 6 µL for 30 min at 30 °C in an appropriate kinase buffer (10 mM MgCl2, 1 mM EGTA, 1 mM DTT, 25 mM Tris-HCl pH 7.5, 50 µg/mL heparin), with peptide or protein as substrate in the presence of 10 µM ATP. Peptide substrates were obtained from ProteoGenix (Schiltigheim, France) or Sigma for Histone H1, Poly (L-glutamic acid–L-tyrosine) sodium salt, Casein and MBP. After that, 6 µL of ADP-Glo^TM Kinase Reagent was added to stop the kinase reaction. After an incubation time of 50 min at room temperature (rt), 12 µL of Kinase Detection Reagent was added for one hour at rt. The transmitted signal was measured using the Envision (PerkinElmer, Waltham, MA, USA) microplate luminometer and expressed as Relative Light Units (RLUs). Kinase activities are expressed as percentages of remaining kinase activities detected after treatment with 1 or 10 µM of the tested compounds. The maximum kinase activity was measured in the absence of inhibitor but with an equivalent dose of DMSO (solvent of the tested compounds).
3. Kinase inhibition assays
Kinase enzymatic activities were assayed in 384-well plates using the ADP-GloTM assay kit (Promega, Madison, WI) according to the recommendations of the manufacturer. This luminescent ADP detection assay was described by Zegzouti and co-workers and provides a homogeneous and high-throughput screening method to measure kinase activity by quantifying the amount of ADP produced during a kinase reaction. Briefly, the reactions were carried out in a final volume of 6 µl for 30 min at 30°C in appropriate kinase buffer (10 mM MgCl2, 1 mM EGTA, 1 mM DTT, 25 mM Tris-HCl pH 7.5, 50 µg/mL heparin), with peptide or protein as substrate in the presence of 10 µM ATP. Peptide substrates were obtained from ProteoGenix (Schiltigheim, France) or Sigma for Histone H1, Poly (L-glutamic acid – L-tyrosine) sodium salt, Casein and MBP. After that, 6 µL of ADP-GloTM Kinase Reagent was added to stop the kinase reaction. After an incubation time of 50 min at room temperature (rt), 12 µL of Kinase Detection Reagent was added for 1 h at rt. The transmitted signal was measured using the Envision (PerkinElmer, Waltham, MA) microplate luminometer and expressed in Relative Light Unit (RLU). Kinase activities are expressed in percentages of remaining kinase activities detected after treatment with 1 or 10 µM of the tested compounds. The maximal kinase activity is measured in the absence of inhibitor but with an equivalent dose of DMSO (solvent of the tested compounds).
Table. Human protein kinases tested in the panel: CDK9, HASPIN, PIM1, GSK3b, CK1ε, JAK3, CLK1 […]
Protein Kinase Enzyme Description Substrate1
(Family) (Working concentration)
CDK9/CyclinT Human, recombinant, expressed by Peptide:
(CMGC) baculovirus in Sf9 insect cells […]
CLK1 Human, recombinant, expressed by Peptide: […]
(CMGC) baculovirus in Sf9 insect cells (57.3µM)
DYRK1A Human, recombinant, expressed by Peptide: […]
(CMGC) baculovirus in Sf9 insect cells (10.7µM)
PIM1 Human proto-oncogene, recombinant, Peptide: […]
(CAMK) expressed in bacteria (630 µM)
GSK3 Human, recombinant, expressed by Peptide:
(CMGC) baculovirus in Sf9 insect cells […]pEDEEE 3
HASPIN Human, kinase domain, amino acids 470 to Histone H3 peptide (1-21):
(Other) 798, recombinant, expressed in bacteria […] (8µM)
CK1ε Human, recombinant, expressed by Peptide: […]pAYSITA 2
(CK1) baculovirus in Sf9 insect cells (170µM)
JAK3 Human, recombinant, expressed by Peptide: […]
(TK) baculovirus in Sf9 insect cells (94µM) […]

T1 sequence (P11309 whole entry): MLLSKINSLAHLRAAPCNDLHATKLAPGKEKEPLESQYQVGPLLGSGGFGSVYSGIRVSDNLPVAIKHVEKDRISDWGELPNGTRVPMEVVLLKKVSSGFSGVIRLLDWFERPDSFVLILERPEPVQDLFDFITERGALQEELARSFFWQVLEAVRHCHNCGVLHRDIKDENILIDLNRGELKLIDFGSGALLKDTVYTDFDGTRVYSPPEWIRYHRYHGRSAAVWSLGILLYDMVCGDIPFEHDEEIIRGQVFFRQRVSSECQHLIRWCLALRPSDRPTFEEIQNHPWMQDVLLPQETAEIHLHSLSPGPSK

Regarding `COC(=N)c1nc2cc3c(=O)n(Cc4ccccc4)cnc3cc2s1` [Compound 6a, Methyl 7-benzyl-8-oxo-7,8-dihydrothiazolo[4,5-g]quinazoline-2-carbimidate], the IC50 at 48 h was 20 µM in series [1] and more than 25 µM in series [2]. The remaining activity at 1 µM at Pim-1 is 80%. Further, the remaining activity at 10 µM on Pim-1 amounted to 133%.
As to `COC(=N)c1nc2cc3ncn(Cc4ccccc4)c(=O)c3cc2s1` [Compound 6b, Methyl 7-benzyl-8-oxo-7,8-dihydrothiazolo[5,4-g]quinazoline-2-carbimidate], the IC50 at 48 h in series [1] and in series [2] was 1 µM in each case. In addition, on Pim-1, the remaining activity at 1 µM was 90%. At Pim-1, the remaining activity at 10 µM stood at 78%.
`COC(=N)c1nc2c(ccc3c(=O)n(Cc4ccccc4)cnc32)s1` [Compound 6c, Methyl 7-benzyl-6-oxo-6,7-dihydrothiazolo[5,4-h]quinazoline-2-carbimidate]: the values for the IC50 at 48 h in series [1] and in series [2] were 3 µM and 10 µM, respectively. In addition, the remaining activity at 1 µM on Pim-1 came out at 74%. The remaining activity at 10 µM at Pim-1 turned out to be 86%.
The molecule `COC(=N)c1nc2ccc3c(=O)n(Cc4ccccc4)cnc3c2s1` [Compound 6d, Methyl 7-benzyl-6-oxo-6,7-dihydrothiazolo[4,5-h]quinazoline-2-carbimidate] came in with a concentration for half-maximal inhibition (IC50) at 48 h in series [1] of 2 µM. This molecule displayed an IC50 at 48 h in series [2] of 9 µM. For the same molecule, on Pim-1, the remaining activity at 1 µM came out at 92% and the remaining activity at 10 µM amounted to 94%.
The like results for `COC(=N)c1nc2cc3c(Nc4ccc(OC)cc4F)ncnc3cc2s1` [Compound 15a, Methyl 8-[(2-fluoro-4-methoxyphenyl)amino]thiazolo[4,5-g]quinazoline-2-carbimidate] were, in that order, 8 µM, 8 µM, 71% and 113%.
`COC(=N)c1nc2cc3ncnc(Nc4ccc(OC)cc4F)c3cc2s1` [Compound 15b, Methyl 8-[(2-fluoro-4-methoxyphenyl)amino]thiazolo[5,4-g]quinazoline-2-carbimidate]: at Pim-1, the remaining activity at 1 µM came out at 74% and the remaining activity at 10 µM worked out at 105%.
The molecule `COC(=N)c1nc2ccc3ncn(Cc4ccccc4)c(=O)c3c2s1` [Compound I, methyl 8-benzyl-9-oxo-8,9-dihydrothiazolo[5,4-f]quinazoline-2-carbimidate, reference compound] displayed a 50% inhibitory concentration (IC50) at 48 h in series [1] of 18 µM. Moreover, in series [2], it took 15 µM to reach half-maximal inhibition (IC50 at 48 h). Also, on Pim-1, the remaining activity at 1 µM amounted to 79% and the remaining activity at 10 µM is 77%.
As to `COC(=N)c1nc2ccc3ncnc(Nc4ccc(OC)cc4F)c3c2s1` [Compound II, methyl 9-[(2-fluoro-4-methoxyphenyl)amino]thiazolo[5,4-f]quinazoline-2-carbimidate, reference compound], the IC50 at 48 h in series [1] amounted to 4 µM. In addition, the concentration for half-maximal inhibition (IC50) at 48 h in series [2] was determined as 5 µM. At Pim-1, the remaining activity at 1 µM turned out to be 52% and the remaining activity at 10 µM is 32%.
